Measurements reported in ChEMBL document CHEMBL1141380 (J Med Chem, 2007).
Values after ≈ are worked out from the molar mass of the structure shown.

Assays:
[1] = target: T1, Angiopoietin-1 receptor (Homo sapiens, UniProt Q02763); assay: Inhibition of angiopoietin-1-stimulated Tie2 phosphorylation in EA.hy926 cells; assay type: functional, cell-based
[2] = Clearance in iv dosed rat; assay type: ADME, organism-based; details: in vivo
[3] = target: T1, Angiopoietin-1 receptor; assay: Inhibition of Tie2 by HTRF assay
[4] = target: Vascular endothelial growth factor receptor 2 (Homo sapiens, UniProt P35968)
Description: Inhibition of KDR by HTRF assay

[5] = target: Mitogen-activated protein kinase 10 (Homo sapiens, UniProt P53779); assay: inhibition of JNK3
[6] = target: Platelet-derived growth factor receptor beta (Homo sapiens, UniProt P09619); assay: Inhibition of PDGFR
[7] = Plasma concentration in CD1 NU/NU mouse at 100 mg/kg after 12 hrs; assay type: ADME, organism-based; design: dose 100 mg/kg
[8] = target: Tyrosine-protein kinase ITK/TSK (Homo sapiens, UniProt Q08881); assay: Inhibition of Itk
[9] = target: RAC-alpha serine/threonine-protein kinase (Homo sapiens, UniProt P31749); assay: Inhibition of PKBalpha
[10] = Cmax in Sprague-Dawley rat at 10 mg/kg, po; assay type: ADME, organism-based; design: dose 10 mg/kg, route oral; details: in vivo
[11] = Plasma protein binding in rat; assay type: ADME, cell-free; details: read-out: PPB (converted)
[12] = target: Ephrin type-B receptor 4 (Homo sapiens, UniProt P54760); assay: Inhibition of EPHB4
[13] = target: Macrophage colony-stimulating factor 1 receptor (Homo sapiens, UniProt P07333); assay: Inhibition of c-fms
[14] = target: Tyrosine-protein kinase Lck (Homo sapiens, UniProt P06239); assay: Inhibition of Lck
[15] = target: Tyrosine-protein kinase JAK3 (Homo sapiens, UniProt P52333); assay: Inhibition of Jak3
[16] = Oral bioavailability in Sprague-Dawley rat at 10 mg/kg, po; assay type: ADME, organism-based; details: in vivo
[17] = target: Proto-oncogene tyrosine-protein kinase receptor Ret (Homo sapiens, UniProt P07949); assay: Inhibition of RET
[18] = target: Proto-oncogene tyrosine-protein kinase Src (Homo sapiens, UniProt P12931); assay: inhibition of Src
[19] = Plasma concentration in CD1 NU/NU mouse at 100 mg/kg after 8 hrs; assay type: ADME, organism-based; design: dose 100 mg/kg
[20] = target: Tyrosine-protein kinase Fgr (Homo sapiens, UniProt P09769); assay: Inhibition of Fgr
[21] = target: Tyrosine-protein kinase CSK (Homo sapiens, UniProt P41240); assay: Inhibition of CSK
[22] = target: Mitogen-activated protein kinase 14 (Homo sapiens, UniProt Q16539); assay: Inhibition of p38alpha
[23] = target: High affinity nerve growth factor receptor (Homo sapiens, UniProt P04629); assay: Inhibition of TrkA
[24] = target: Tyrosine-protein kinase ABL1 (Homo sapiens, UniProt P00519); assay: Inhibition of Abl
[25] = Clearance in Sprague-Dawley rat at 1 mg/kg, iv; assay type: ADME, organism-based; design: dose 1 mg/kg, route intravenous; details: in vivo
[26] = target: Cyclin-dependent kinase 5 (Homo sapiens, UniProt Q00535); assay: Inhibition of CDK5
[27] = target: Angiopoietin-1 receptor (Mus musculus) (UniProt Q02858); assay: Inhibition of angiopoietin-1-induced Tie2 phosphorylation in CD1 NU/NU mouse at 100 mg/kg after 8 hrs; assay type: functional, organism-based; design: dose 100 mg/kg
[28] = Plasma concentration in CD1 NU/NU mouse at 100 mg/kg after 3 hrs; assay type: ADME, organism-based; design: dose 100 mg/kg
[29] = Dissociation constant, pKa of the compound; assay type: physicochemical
[30] = Tmax in Sprague-Dawley rat at 10 mg/kg, po; assay type: ADME, organism-based; design: dose 10 mg/kg, route oral; details: in vivo
[31] = target: Tyrosine-protein kinase Lyn (Homo sapiens, UniProt P07948); assay: Inhibition of Lyn
[32] = Half life in Sprague-Dawley rat at 1 mg/kg, iv; assay type: ADME, organism-based; design: dose 1 mg/kg, route intravenous; details: in vivo
[33] = target: Tyrosine-protein kinase ZAP-70 (Homo sapiens, UniProt P43403); assay: Inhibition of ZAP70
[34] = Solubility in 0.01N HCl; assay type: physicochemical
[35] = Solubility in phosphate buffer at pH 7.0; assay type: physicochemical
[36] = target: Tyrosine-protein kinase SYK (Homo sapiens, UniProt P43405); assay: Inhibition of SYK
[37] = target: Insulin-like growth factor 1 receptor (Homo sapiens, UniProt P08069); assay: Inhibition of IGFR1
[38] = Plasma protein binding in mouse; assay type: ADME, cell-free; details: read-out: PPB (converted)
[39] = Solubility in simulated intestinal fluid at pH 6.8; assay type: physicochemical
[40] = AUC (0-infinity) in Sprague-Dawley rat at 10 mg/kg, po; assay type: ADME, organism-based; design: time infinity, dose 10 mg/kg, route oral; details: plasma
[41] = target: Aurora kinase A (Homo sapiens, UniProt O14965); assay: Inhibition of AurA
[42] = target: Angiopoietin-1 receptor (Mus musculus) (UniProt Q02858); assay: Inhibition of angiopoietin-1-induced Tie2 phosphorylation in CD1 NU/NU mouse at 100 mg/kg after 3 hrs; assay type: functional, organism-based; design: dose 100 mg/kg
[43] = Volume of distribution in Sprague-Dawley rat at 1 mg/kg, iv; assay type: ADME, organism-based; design: dose 1 mg/kg, route intravenous; details: in vivo, read-out: Vss
[44] = Mean residence time in rat; assay type: ADME, organism-based; details: in vivo
[45] = target: Vascular endothelial growth factor receptor 2 and tyrosine-protein kinase TIE-2 (KDR and TIE2) (Homo sapiens) (UniProt P35968+Q02763); assay: Selectivity for Tie2 over KDR; assay type: protein assay
[46] = target: Mast/stem cell growth factor receptor Kit (Homo sapiens, UniProt P10721); assay: Inhibition of cKit

Vascular endothelial growth factor receptor 2, sequence (P35968 whole entry): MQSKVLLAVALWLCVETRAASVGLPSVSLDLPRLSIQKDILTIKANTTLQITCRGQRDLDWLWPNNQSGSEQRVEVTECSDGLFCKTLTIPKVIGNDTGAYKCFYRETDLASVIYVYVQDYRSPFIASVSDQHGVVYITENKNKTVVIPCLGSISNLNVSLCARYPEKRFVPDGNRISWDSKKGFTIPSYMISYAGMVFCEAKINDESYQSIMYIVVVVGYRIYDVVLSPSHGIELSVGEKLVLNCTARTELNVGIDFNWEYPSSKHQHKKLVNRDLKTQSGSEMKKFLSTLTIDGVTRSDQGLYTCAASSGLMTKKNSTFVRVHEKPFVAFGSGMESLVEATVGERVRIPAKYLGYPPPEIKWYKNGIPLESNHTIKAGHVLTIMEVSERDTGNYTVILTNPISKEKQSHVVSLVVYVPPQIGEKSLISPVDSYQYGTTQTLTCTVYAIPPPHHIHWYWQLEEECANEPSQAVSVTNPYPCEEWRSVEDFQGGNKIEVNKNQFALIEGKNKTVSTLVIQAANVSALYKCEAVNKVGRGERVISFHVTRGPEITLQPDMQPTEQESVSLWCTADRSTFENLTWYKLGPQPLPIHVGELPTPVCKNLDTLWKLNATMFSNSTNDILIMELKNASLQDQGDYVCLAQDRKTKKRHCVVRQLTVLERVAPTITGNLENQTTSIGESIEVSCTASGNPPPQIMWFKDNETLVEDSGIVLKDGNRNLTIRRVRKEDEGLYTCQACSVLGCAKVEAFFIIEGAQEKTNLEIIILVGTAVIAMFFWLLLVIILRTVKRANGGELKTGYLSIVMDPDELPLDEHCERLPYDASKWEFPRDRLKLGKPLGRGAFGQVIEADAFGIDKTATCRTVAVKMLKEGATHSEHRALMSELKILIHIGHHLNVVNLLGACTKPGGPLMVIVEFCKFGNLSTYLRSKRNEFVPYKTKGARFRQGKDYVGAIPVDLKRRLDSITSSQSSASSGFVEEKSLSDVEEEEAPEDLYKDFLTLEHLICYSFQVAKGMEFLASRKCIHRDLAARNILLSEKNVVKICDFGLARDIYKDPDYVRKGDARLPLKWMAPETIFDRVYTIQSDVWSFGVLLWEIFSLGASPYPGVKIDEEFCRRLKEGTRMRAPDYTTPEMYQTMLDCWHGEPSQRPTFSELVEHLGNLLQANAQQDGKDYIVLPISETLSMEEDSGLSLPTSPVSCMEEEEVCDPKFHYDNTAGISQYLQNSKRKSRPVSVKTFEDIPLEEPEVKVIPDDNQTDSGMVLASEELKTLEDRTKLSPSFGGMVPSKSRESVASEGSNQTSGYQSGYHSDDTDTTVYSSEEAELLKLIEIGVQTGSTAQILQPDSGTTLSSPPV
T1 sequence (Q02763 whole entry): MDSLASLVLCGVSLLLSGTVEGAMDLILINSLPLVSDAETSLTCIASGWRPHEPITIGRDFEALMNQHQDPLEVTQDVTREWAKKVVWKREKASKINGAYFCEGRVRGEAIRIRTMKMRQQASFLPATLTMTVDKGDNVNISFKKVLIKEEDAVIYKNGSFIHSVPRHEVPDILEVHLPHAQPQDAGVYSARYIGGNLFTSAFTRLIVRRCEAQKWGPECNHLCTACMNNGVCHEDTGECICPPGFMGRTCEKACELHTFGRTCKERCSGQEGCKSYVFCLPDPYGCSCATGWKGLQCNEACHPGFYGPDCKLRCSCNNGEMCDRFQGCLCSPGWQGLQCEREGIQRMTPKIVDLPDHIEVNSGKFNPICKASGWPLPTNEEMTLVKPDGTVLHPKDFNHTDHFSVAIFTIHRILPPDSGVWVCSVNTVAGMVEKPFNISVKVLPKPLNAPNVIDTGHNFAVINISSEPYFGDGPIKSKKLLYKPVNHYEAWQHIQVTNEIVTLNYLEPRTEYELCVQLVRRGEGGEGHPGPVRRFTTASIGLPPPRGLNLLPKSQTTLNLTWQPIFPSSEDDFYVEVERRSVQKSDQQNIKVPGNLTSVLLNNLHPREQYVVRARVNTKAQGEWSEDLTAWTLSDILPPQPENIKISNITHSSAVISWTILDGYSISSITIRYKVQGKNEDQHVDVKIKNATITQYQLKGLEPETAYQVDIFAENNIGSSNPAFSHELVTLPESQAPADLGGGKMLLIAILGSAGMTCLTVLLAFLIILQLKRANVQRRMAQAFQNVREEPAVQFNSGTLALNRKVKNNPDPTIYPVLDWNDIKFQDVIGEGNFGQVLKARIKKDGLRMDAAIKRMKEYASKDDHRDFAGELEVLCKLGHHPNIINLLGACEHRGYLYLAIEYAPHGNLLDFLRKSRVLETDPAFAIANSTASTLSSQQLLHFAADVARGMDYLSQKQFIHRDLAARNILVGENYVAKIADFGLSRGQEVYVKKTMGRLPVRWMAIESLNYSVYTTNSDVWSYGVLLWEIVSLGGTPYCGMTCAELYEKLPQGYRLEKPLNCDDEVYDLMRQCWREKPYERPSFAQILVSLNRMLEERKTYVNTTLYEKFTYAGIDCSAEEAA
Angiopoietin-1 receptor (Mus musculus), sequence (Q02858 whole entry): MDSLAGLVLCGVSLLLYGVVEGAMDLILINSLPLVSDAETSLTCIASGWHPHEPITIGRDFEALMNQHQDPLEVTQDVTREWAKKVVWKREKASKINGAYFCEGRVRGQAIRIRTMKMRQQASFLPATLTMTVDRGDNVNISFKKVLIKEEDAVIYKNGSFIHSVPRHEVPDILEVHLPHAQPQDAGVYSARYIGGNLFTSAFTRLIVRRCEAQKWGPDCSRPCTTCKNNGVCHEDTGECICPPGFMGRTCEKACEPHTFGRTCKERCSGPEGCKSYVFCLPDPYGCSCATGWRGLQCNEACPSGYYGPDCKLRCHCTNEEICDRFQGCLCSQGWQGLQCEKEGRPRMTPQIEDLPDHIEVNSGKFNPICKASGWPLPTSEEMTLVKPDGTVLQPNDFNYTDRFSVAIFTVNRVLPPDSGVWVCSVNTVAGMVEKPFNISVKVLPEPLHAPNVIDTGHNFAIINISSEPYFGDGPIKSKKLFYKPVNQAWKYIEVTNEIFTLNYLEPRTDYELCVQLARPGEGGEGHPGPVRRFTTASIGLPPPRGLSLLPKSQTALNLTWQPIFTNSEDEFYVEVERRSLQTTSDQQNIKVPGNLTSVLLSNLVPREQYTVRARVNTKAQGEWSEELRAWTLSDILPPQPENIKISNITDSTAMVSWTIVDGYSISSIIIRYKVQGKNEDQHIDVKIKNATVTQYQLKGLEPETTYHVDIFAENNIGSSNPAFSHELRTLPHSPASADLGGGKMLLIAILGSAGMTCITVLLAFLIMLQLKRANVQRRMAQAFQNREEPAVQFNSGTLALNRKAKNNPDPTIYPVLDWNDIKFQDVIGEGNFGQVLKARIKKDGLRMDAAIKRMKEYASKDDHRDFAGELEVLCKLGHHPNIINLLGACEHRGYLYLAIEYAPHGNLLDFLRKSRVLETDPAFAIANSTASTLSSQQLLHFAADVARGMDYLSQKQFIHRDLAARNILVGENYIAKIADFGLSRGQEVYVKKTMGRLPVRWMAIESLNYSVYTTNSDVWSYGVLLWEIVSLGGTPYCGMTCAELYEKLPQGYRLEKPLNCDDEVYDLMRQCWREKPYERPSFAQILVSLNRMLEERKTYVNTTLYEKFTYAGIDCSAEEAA
Vascular endothelial growth factor receptor 2 and tyrosine-protein kinase TIE-2 (KDR and TIE2) (Homo sapiens), sequence (P35968 whole entry, looked up): as the sequence (P35968 whole entry) above
Vascular endothelial growth factor receptor 2 and tyrosine-protein kinase TIE-2 (KDR and TIE2) (Homo sapiens), sequence (Q02763 whole entry, looked up): as the sequence (Q02763 whole entry) above
Tyrosine-protein kinase Lyn, sequence (P07948 whole entry): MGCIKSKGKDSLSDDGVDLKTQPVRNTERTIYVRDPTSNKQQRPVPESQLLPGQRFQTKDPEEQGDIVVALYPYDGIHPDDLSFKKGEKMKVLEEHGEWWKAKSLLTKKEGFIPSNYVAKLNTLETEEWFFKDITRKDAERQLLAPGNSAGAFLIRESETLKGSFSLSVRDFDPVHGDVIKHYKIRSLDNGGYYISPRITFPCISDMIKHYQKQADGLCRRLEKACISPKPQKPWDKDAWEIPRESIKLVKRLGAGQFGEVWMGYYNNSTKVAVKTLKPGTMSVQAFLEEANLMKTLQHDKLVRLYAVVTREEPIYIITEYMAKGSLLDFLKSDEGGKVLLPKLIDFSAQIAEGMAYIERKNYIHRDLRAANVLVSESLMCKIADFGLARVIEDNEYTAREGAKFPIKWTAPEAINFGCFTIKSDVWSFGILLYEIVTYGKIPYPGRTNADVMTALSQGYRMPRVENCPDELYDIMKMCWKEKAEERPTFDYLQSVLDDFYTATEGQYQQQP
Proto-oncogene tyrosine-protein kinase Src, sequence (P12931 2-536 limits assumed): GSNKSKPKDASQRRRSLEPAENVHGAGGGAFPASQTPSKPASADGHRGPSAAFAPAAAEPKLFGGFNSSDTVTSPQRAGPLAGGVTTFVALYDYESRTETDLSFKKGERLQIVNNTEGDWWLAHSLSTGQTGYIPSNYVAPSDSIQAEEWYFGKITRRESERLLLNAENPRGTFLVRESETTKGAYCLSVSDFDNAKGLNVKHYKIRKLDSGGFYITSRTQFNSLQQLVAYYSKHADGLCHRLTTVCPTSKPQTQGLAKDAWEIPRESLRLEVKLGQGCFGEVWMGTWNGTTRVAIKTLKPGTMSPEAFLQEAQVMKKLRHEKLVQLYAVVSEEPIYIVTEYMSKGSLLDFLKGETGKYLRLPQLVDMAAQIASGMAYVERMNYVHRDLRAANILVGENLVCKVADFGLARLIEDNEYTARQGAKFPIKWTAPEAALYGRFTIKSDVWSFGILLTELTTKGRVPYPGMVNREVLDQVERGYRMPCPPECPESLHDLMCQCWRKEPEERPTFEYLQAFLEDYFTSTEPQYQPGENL
Mitogen-activated protein kinase 14, sequence (Q16539 whole entry): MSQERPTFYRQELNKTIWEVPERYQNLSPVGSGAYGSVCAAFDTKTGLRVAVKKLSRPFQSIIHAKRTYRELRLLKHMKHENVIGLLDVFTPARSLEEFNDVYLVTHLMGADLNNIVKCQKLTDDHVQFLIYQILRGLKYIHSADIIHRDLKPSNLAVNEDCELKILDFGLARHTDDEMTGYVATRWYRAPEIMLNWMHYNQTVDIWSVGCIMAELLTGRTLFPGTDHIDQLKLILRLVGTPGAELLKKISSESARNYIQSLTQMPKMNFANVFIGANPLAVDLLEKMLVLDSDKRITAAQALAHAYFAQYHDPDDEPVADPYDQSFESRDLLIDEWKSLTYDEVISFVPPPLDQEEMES

CNc1ncnc(-c2cccnc2Oc2ccc(F)c(C(=O)Nc3cc(C4CC4)ccc3N(C)CCCN(C)C)c2)n1
IC50 [1]: 39 nM
clearance [2]: 45.5 mL/min/kg
IC50 [3]: 13 nM
IC50 [4]: > 25000 nM

Cc1ccc(C(=O)Nc2cc(C(F)(F)F)ccc2N2CCOCC2)cc1Oc1ncccc1-c1ccncn1
IC50 [4]: > 25000 nM

CNc1ncnc(-c2cccnc2Oc2ccc(F)c(C(=O)Nc3cc(C(F)(F)F)ccc3N(C)CCCN(C)C)c2)n1
IC50 [5]: 40000 nM
IC50 [6]: 1940 nM
concentration at 12 h [7]: 1.59 µM
IC50 [8]: 25000 nM
IC50 [9]: 100000 nM
Cmax [10]: 520 ng/mL
fraction unbound [11]: 0.07
IC50 [12]: 8300 nM
IC50 [13]: 25000 nM
IC50 [14]: 1100 nM
IC50 [15]: 25000 nM
bioavailability [16]: 31%
IC50 [1]: 62 nM
IC50 [17]: 8300 nM
IC50 [18]: 5750 nM
clearance [2]: 21.7 mL/min/kg
IC50 [3]: 30 nM
concentration at 8 h [19]: 3.03 µM
IC50 [20]: 8300 nM
IC50 [21]: 25000 nM
IC50 [4]: 7800 nM
IC50 [22]: 3700 nM
IC50 [23]: 8300 nM
IC50 [24]: 1280 nM
clearance [25]: 21.7 mL/min/kg
IC50 [26]: 100000 nM
inhibition [27]: 25%
concentration at 3 h [28]: 3.97 µM
pKa [29]: 9.5
Tmax [30]: 2 h
IC50 [31]: 4900 nM
half-life [32]: 1.6 h
IC50 [33]: 25000 nM
solubility [34]: 1320 µg/mL (≈ 2210 µM)
solubility [35]: 44 µg/mL (≈ 73.5 µM)
IC50 [36]: 25000 nM
IC50 [37]: 927 nM
fraction unbound [38]: 0.02
solubility [39]: 340 µg/mL (≈ 568 µM)
AUC(0-inf) [40]: 2640 ng·h/mL
IC50 [41]: 25000 nM
inhibition [42]: 94%
Vd [43]: 2.56 L/kg

CNc1ncnc(-c2cccnc2Oc2cc(C(=O)Nc3cc(C4CCCCC4)ccc3OC)ccc2C)n1
IC50 [1]: 61 nM
clearance [2]: 12.8 mL/min/kg
IC50 [3]: 22 nM
IC50 [4]: > 25000 nM
MRT [44]: 0.47 h

O=C(Nc1ccc(Oc2ccccc2)cc1)c1cccnc1NCc1ccncc1
IC50 [3]: ≥ 25000 nM

CNc1nccc(-c2cccnc2Oc2cc(C(=O)Nc3cc(C(F)(F)F)ccc3N3CCOCC3)ccc2C)n1
IC50 [4]: 310 nM

COc1cc(Nc2ncnc(-c3cccnc3Nc3cccc(C(=O)Nc4ccc(Oc5ccccc5)cc4)c3)n2)cc(OC)c1OC
IC50 [3]: 85 nM
IC50 [4]: 38 nM

CNc1nccc(-c2cccnc2Oc2cc(C(=O)Nc3cc(C4CCCCC4)ccc3OC)ccc2C)n1
clearance [2]: 58.2 mL/min/kg
IC50 [4]: 70 nM

Cc1ccc(C(=O)Nc2ccccc2)cc1Nc1ncccc1-c1ccncn1
IC50 [4]: 435 nM

CNc1nccc(-c2cccnc2Oc2ccc(F)c(C(=O)Nc3cc(C(F)(F)F)ccc3N(C)CCCN(C)C)c2)n1
bioavailability [16]: 32%
clearance [2]: 12 mL/min/kg
IC50 [4]: 46 nM

Cc1ccc(C(=O)Nc2cc(C(F)(F)F)ccc2N2CCCCC2)cc1Oc1ncccc1-c1ccncn1
IC50 [4]: 1300 nM

CNc1ncnc(-c2cccnc2Oc2cc(C(=O)Nc3cc(C(F)(F)F)ccc3N(C)CCCN(C)C)ccc2C)n1
IC50 [1]: 140 nM
clearance [2]: 15.3 mL/min/kg
IC50 [3]: 59 nM
IC50 [4]: 4000 nM

CNc1nccc(-c2cccnc2Oc2cc(C(=O)Nc3cc(C(F)(F)F)ccc3N3CCCCC3)ccc2C)n1
IC50 [4]: 461 nM

Cc1ccc(C(=O)Nc2ccc(C(F)(F)F)cc2)cc1Oc1ncccc1-c1ccncn1
IC50 [4]: 705 nM
solubility [34]: 5 µg/mL (≈ 11.1 µM)

COc1ccc(C(F)(F)F)cc1NC(=O)c1ccc(C)c(Oc2ncccc2-c2ccncn2)c1
IC50 [4]: 100 nM

CNc1nccc(-c2cccnc2Oc2cccc(C(=O)Nc3cc(C(F)(F)F)ccc3N3CCCCC3)c2)n1
IC50 [1]: 368 nM
clearance [2]: 54 mL/min/kg
IC50 [3]: 99 nM
IC50 [4]: > 8000 nM

CNc1ncnc(-c2cccnc2Oc2cc(C(=O)Nc3cccc(C(F)(F)F)c3)ccc2C)n1
IC50 [1]: 38 nM
IC50 [3]: 10 nM
IC50 [4]: 97 nM

Cc1ccc(C(=O)Nc2cc(C(F)(F)F)ccc2N2CCCCC2)cc1Nc1ncccc1-c1ccncn1
Selectivity ratio [45]: > 100
IC50 [3]: 181 nM
IC50 [4]: > 25000 nM

CNc1nccc(-c2cccnc2Oc2ccc(F)c(C(=O)Nc3cc(C(F)(F)F)ccc3N3CCCCC3)c2)n1
Selectivity ratio [45]: > 500
bioavailability [16]: 0.3%
IC50 [1]: 244 nM
clearance [2]: 5.67 mL/min/kg
IC50 [3]: 40 nM
IC50 [4]: > 25000 nM

CNc1cc(-c2cccnc2Oc2cc(C(=O)Nc3cc(C4CCCCC4)ccc3OC)ccc2C)ccn1
clearance [2]: 98.3 mL/min/kg
IC50 [4]: > 25000 nM

Cc1ccc(C(=O)Nc2ccc(C(F)(F)F)cc2)cc1Nc1ncccc1-c1ccncn1
IC50 [3]: 504 nM
IC50 [4]: 177 nM
solubility [34]: 1 µg/mL (≈ 2.23 µM)

CNc1nccc(-c2cccnc2Oc2cc(C(=O)Nc3cc(C(F)(F)F)ccc3N3CCCCC3)ccc2Cl)n1
clearance [2]: 21.6 mL/min/kg
IC50 [4]: 675 nM

CNc1ncnc(-c2cccnc2Oc2ccc(F)c(C(=O)Nc3cc(C(C)C)ccc3N(C)CCCN(C)C)c2)n1
clearance [2]: 70 mL/min/kg
IC50 [4]: > 8000 nM

CNc1ncnc(-c2cccnc2Oc2ccc(F)c(C(=O)Nc3cc(C(F)(F)F)ccc3N3CCCCC3)c2)n1
IC50 [4]: > 25000 nM

COc1ccc(C2CCCCC2)cc1NC(=O)c1ccc(C)c(Oc2ncccc2-c2ccnc3ccccc23)c1
IC50 [3]: > 25000 nM
IC50 [4]: > 25000 nM

Cc1ccc(C(=O)Nc2cccc(C(F)(F)F)c2)cc1Oc1ncccc1-c1ccncn1
IC50 [4]: 59 nM

CNc1nccc(-c2cccnc2Oc2cc(C(=O)Nc3cc(C(F)(F)F)ccc3N3CCCCC3)ccc2F)n1
clearance [2]: 25.6 mL/min/kg
IC50 [4]: 2000 nM

CNc1nccc(-c2cc(C)cnc2Oc2cccc(C(=O)Nc3cc(C(F)(F)F)ccc3N3CCCCC3)c2C)n1
IC50 [3]: 388 nM
IC50 [4]: 2600 nM

COc1ccc(C2CCCCC2)cc1NC(=O)c1ccc(C)c(Oc2ncccc2-c2ncnc3cc(OC)c(OC)cc23)c1
IC50 [3]: > 25000 nM
IC50 [4]: > 25000 nM

COc1ccc(C(F)(F)F)cc1NC(=O)c1ccc(C)c(Nc2ncccc2-c2ccncn2)c1
IC50 [4]: 58 nM

Cc1ccc(C(=O)Nc2cccc(C(F)(F)F)c2)cc1Nc1ncccc1-c1ccncn1
IC50 [12]: < 25 nM
IC50 [18]: < 25 nM
IC50 [4]: 4 nM
IC50 [22]: < 25 nM
IC50 [46]: < 25 nM
IC50 [31]: < 25 nM
